Data published in paper PMC5889558, “The inhibition of human lung fibroblast proliferation and differentiation by Gs-coupled receptors is not predicted by the magnitude of cAMP response” (Respiratory Research, 2018).
“Also recorded” adds a separate entry of the source.

Columns and labels:
Assay type in all cases: cell-based
[1] = system: human lung fibroblasts (HLF); experiment: cAMP accumulation in HLF (HitHunter or AlphaScreen); conditions: HLF; for cAMP response (in words): acute cAMP accumulation; for cAMP pEC50 / cAMP Emax (% max) / EC50 / Emax: 2 h, mean ± SEM, NC = not calculated due to incomplete curve; for cAMP pEC50 / EC50: room temperature, 5 μM rolipram (excluded for PDE inhibitors), at least 3 experiments; for cAMP Emax (% max) / Emax: percentage of the maximal forskolin response; for EC50 / Emax: Homo sapiens, Fibroblast; for EC50: read-out: cAMP pEC50 (converted); for Emax: read-out: cAMP Emax (% max)
Procedure: HLF were grown to confluency in 96-well white ViewPlates, before incubation with a range of agonist concentrations, or vehicle, for 2 h at room temperature in HBSS with 5 mM HEPES, 0.1% w/v HSA, and 5 μM rolipram. […] Rolipram was excluded when measuring cAMP levels in response to PDE inhibitors. cAMP levels were measured using either HitHunter cAMP assay or AlphaScreen competition assay following manufacturer protocol, and were assessed on either a BMG LABTEK ClarioStar or a Packard EnVision plate reader. cAMP concentrations in each well were determined using a standard curve. To account for the inter-assay variation in levels of cAMP produced in each experiment, data were normalized to the maximal forskolin response.

[2] = system: human lung fibroblasts (HLF); experiment: HLF proliferation by BrdU incorporation (DELFIA), driven by FBS or PDGF; conditions: 24 h; for inhibition of FBS- and PDGF-driven proliferation (in words): either stimulus; for maximal level of inhibition of PDGF-driven proliferation: near maximal PDGF; for Proliferation vs PDGF Emax (% max) / Proliferation vs PDGF pEC50 / Proliferation vs serum pEC50 / Proliferation vs serum Emax (% max) / Emax / EC50: inhibition of BrdU incorporation, NC = not calculated due to incomplete curve; for Proliferation vs PDGF pEC50 / Proliferation vs serum pEC50 / EC50: mean ± SEM; for Emax / EC50: Homo sapiens, Fibroblast
Procedure: (§1) Proliferation of HLF was measured by incorporation of bromodeoxyuridine (BrdU). HLF were seeded overnight at 4000 cells/well in 96-well black ViewPlates, before being starved for 24 h in culture medium devoid of FBS. Proliferation was measured after incubation with a range of concentrations of FBS or PDGF, in DMEM supplemented with 0.1% w/v HSA, for 24 h.
For anti-remodelling assays using BrdU incorporation, cells were incubated for 24 h with a range of concentrations of test compounds in the presence of near maximal concentrations of FBS or PDGF in DMEM supplemented with 0.1% w/v HSA. Proliferation was assessed using the DELFIA BrdU incorporation assay kit following manufacturer protocol. Fluorescence was measured using a Packard EnVision plate reader. To account for the inter-assay variation in levels of proliferation in each experiment, data were normalized to the PDGF or FBS response.

[3] = system: human lung fibroblasts (HLF); experiment: Fibroblast to myofibroblast transdifferentiation (FMT), αSMA immunofluorescence, TGFβ-driven; conditions: 48 h, TGFβ 0.3 ng/mL
Procedure: To assess the differentiation of fibroblasts to the myofibroblast phenotype, immunofluorescence was used to monitor increases in α smooth muscle actin (αSMA). HLF were seeded overnight at 1000 cells/well in 384-well black clear bottom plates, before being starved for 24 h growth medium devoid of FBS.
For anti-remodelling assays using FMT, cells were incubated for 48 h with a range of concentrations of test compounds and incubated for 48 h, at 37°C, 5% CO2 in the presence of a near maximal concentration of TGFβ (0.3 ng/mL), to promote differentiation in DMEM supplemented with 0.1% w/v HSA. Following stimulation, cells were fixed in 4% paraformaldehyde, washed 3× in PBS (with Ca^2+/Mg^2+), and incubated with permeabilising blocking buffer (dPBS (with Ca^2+/Mg^2+), 10% FBS (v/v), 0.1% Triton X-100 (v/v)) for 1 h at 37°C. Wells were then washed 3× in wash buffer (Tris Buffered Saline (TBS), 0.05% (v/v) Tween-20) and incubated with mouse anti-α SMA (1:1000 dilution in permeabilising blocking buffer) for 1 h at room temperature, with gentle shaking. Following 3× wash in wash buffer, wells were incubated with blocking buffer containing Hoechst to stain for nuclear DNA (2 μM), and FITC-conjugated Affini-pure goat […] IgG (1:1000 dilution in blocking buffer) for 30 min at 37°C. Fluorescence was then quantified on a widefield ImageXpress Micro microscope, with a Plan Fluor 20X objective, DAPI filter cube (excitation 400–418 nm, emission 435–470 nm), 50 ms exposure time for nuclei, and FITC filter cube (excitation 467–498 nm, emission 513–556 nm), 200 ms exposure time for αSMA.
To quantify increases in αSMA fluorescence, a standard Multi-Wavelength Cell Scoring algorithm was used in MetaXpress 5.3 software (Molecular Devices, California, USA). To account for the inter-assay variation in levels of αSMA expression produced in each experiment, data were normalized to the response to TGFβ.

[4] = system: human lung fibroblasts (HLF); experiment: Cell viability assay, caspase-3/7 as marker of apoptosis; conditions: 24 h
Procedure: Cell viability was measured using caspase-3/7 expression as a marker of apoptosis after treatment for 24 h with test compounds. HLF were seeded overnight at 6,000 cells/well in 96-well black ViewPlates, before being starved for 24 hours in culture medium devoid of FBS. Cells were incubated for 24 hours in the presence of test compounds at the top concentrations used in the proliferation assays, or in the presence of 100 nM staurosporine to induce apoptosis.
The presence of the apoptotic marker caspase-3/7 was detected by incubating cells with 8 μM CellEvent™ Caspase-3/7 Red Detection Reagent in dPBS with 5 % FBS, for 30 minutes at 37°C. […] Images were analyzed using a multi wavelength cell scoring algorithm within the MetaXpress 5.3 software, which measures cell number using stained nuclei, and percent of these cells positive for caspase-3/7 from Cy5 readouts. To account for the inter-assay variation in levels of caspase 3/7 detected in each experiment, data were normalized to the staurosporine response.
Statistical significance across treatment groups was determined by using the one-way ANOVA with Dunnett’s multiple-comparison post hoc test.

[5] = system: human lung fibroblasts (HLF); experiment: HLF proliferation by nuclei count
Procedure: as §1, with “nuclei count. Human lung fibroblasts (HLF)” for “incorporation of bromodeoxyuridine (BrdU). HLF”, “4,000” for “4000”, “0.1 %” for “0.1%”, “24, 48, 72, or 96 h for nuclei count assay.” for “24 h.”
For anti-remodelling assays, cells were incubated for 48 h with a range of concentrations of test compounds in the presence of an EC80 concentration of FBS (1.8 % v/v). Following stimulation, cells were fixed with 4 % PFA and nuclei stained with Hoechst 33342 (1 μM) for 15 minutes at room temperature. Cells were then washed three times with dPBS before the plate was read using the widefield ImageXpress Micro microscope, with a Plan Fluor 4X objective, DAPI filter cube (excitation 400-418nm, emission 435-470nm), and 50 ms exposure time. Images were analysed using a nuclear count algorithm within the MetaXpress 5.3 software (Molecular Devices, California, USA). To account for the inter-assay variation in levels of proliferation in each experiment, data were normalized to the EC80 FBS response.

[6] = HLF, 1:10 dilution of top conc 30 μM
[7] = EC80 PDGF, percentage of maximal proliferation observed with PDGF
[8] = EC80 serum, percentage of maximal proliferation observed with serum
[9] = EC80 PDGF, percentage of maximal proliferation observed with PDGF, read-out: Proliferation vs PDGF Emax (% max)
[10] = EC80 concentration of PDGF, read-out: Proliferation vs PDGF pEC50 (converted)

Compound: Alpha melanocortin stimulating hormone (Ac-SYSMEHFRWGKPV-NH2; ends and bridges not checked; UniProt P01189 138-150, looked up) [α-MSH, MC1, MC3, MC4, MC5 agonist]
- cAMP response (in words) [1]: no detectable cAMP response
- inhibition of FBS- and PDGF-driven proliferation (in words) ([2]; BrdU): incapable of inhibiting the proliferation mediated by either stimulus
- inhibition of TGFβ-driven FMT (in words) [3]: full concentration-response curves could not be established

Compound: CCNC(=O)[C@H]1O[C@@H](n2cnc3c(N)ncnc32)[C@H](O)[C@@H]1O [NECA]
- cAMP pEC50 [1]: 5.39 ± 0.13
- cAMP Emax (% max) [1]: 47.3 ± 3.40 % max
- % cells positive for caspase-3/7, 1:10 dilution [4, 6]: 0.67 ± 0.09%
- % cells positive for caspase-3/7, Top conc ([4]; HLF, top conc 30 μM): 1.04 ± 0.20%
- maximal level of inhibition of PDGF-driven proliferation ([2]; BrdU): 38%
- Proliferation vs PDGF Emax (% max) [2, 7]: 37.8 ± 14.7 % max
- Proliferation vs PDGF pEC50 ([2]; EC80 concentration of PDGF): 6.94 ± 0.43
- inhibition of TGFβ-driven FMT (in words) [3]: full concentration-response curves could not be established

Compound: Platelet-derived growth factor [PDGF]
- EC50 for stimulation of proliferation (nuclei count) ([5]; 72 h treatment): 3.77 ± 0.13 ng/mL
- EC50 for stimulation of proliferation (nuclei count) ([5]; 96 h treatment): 7.26 ± 3.23 ng/mL
- maximal proliferation (nuclei count) ([5]; 96 h treatment): 29.2 ± 15.2 % of the maximal serum response
- maximal proliferation (BrdU incorporation) ([2]; normalized to maximal proliferation observed with 10% serum): 41.0 ± 8.62%

Compound: CC(C)Cn1c(=O)n(C)c(=O)c2[nH]cnc21 [IBMX]
- cAMP response (in words) [1]: no detectable cAMP accumulation; also recorded: did not observe any acute cAMP accumulation
- inhibition of FBS- and PDGF-driven proliferation (in words) ([2]; BrdU): some inhibition of both proliferation and FMT at higher concentrations
- inhibition of TGFβ-driven FMT (in words) [3]: full concentration-response curves could not be established; also recorded: some inhibition of both proliferation and FMT at higher concentrations

Compound: N#Cc1c(N)nc(SCC(N)=O)c(C#N)c1-c1ccc(OCC2CC2)cc1 [BAY60–6583]
- cAMP pEC50 [1]: 6.57 ± 0.06
- cAMP Emax (% max) [1]: 10.2 ± 2.89 % max
- % cells positive for caspase-3/7, 1:10 dilution [4, 6]: 1.04 ± 0.38%
- % cells positive for caspase-3/7, Top conc ([4]; HLF, top conc 30 μM): 0.62 ± 0.14%
- inhibition of FBS- and PDGF-driven proliferation (in words) ([2]; BrdU): fully inhibit both FBS- and PDGF-driven proliferation
- maximal level of inhibition of serum-driven proliferation ([2]; BrdU, near maximal FBS): 100%
- maximal level of inhibition of PDGF-driven proliferation ([2]; BrdU): 100%
- Proliferation vs PDGF Emax (% max) [2, 7]: 100 ± 0.01 % max
- Proliferation vs PDGF pEC50 ([2]; EC80 concentration of PDGF): 5.30 ± 0.12
- Proliferation vs serum pEC50 ([2]; EC80 concentration of serum): 5.30 ± 0.16
- Proliferation vs serum Emax (% max) [2, 8]: 100 ± 0.01 % max
- inhibition of TGFβ-driven FMT (in words) [3]: completely inhibit FMT

Compound: NCCc1ccc(O)c(O)c1 [Dopamine]
- EC50 [1]: 4070 nM
- Emax [1]: 41.2 ± 10%
- % cells positive for caspase-3/7, 1:10 dilution ([4]; human, 3 μM): 1.21 ± 0.34%
- % cells positive for caspase-3/7, Top conc ([4]; human, 30 μM): 0.83 ± 0.14%
- Emax [2, 9]: 73.5 ± 13.5%
- EC50 [2, 10]: 16600 nM
- inhibition of TGFβ-driven FMT (in words) [3]: full concentration-response curves could not be established

Compound: AGN-205204
- cAMP pEC50 [1]: 6.62 ± 0.12
- cAMP Emax (% max) [1]: 49.7 ± 3.84 % max
- % cells positive for caspase-3/7, 1:10 dilution ([4]; HLF, 1:10 dilution of top conc 10 μM): 0.56 ± 0.09%
- % cells positive for caspase-3/7, Top conc ([4]; HLF, top conc 10 μM, mean ± SEM, n=3): 0.57 ± 0.09%
- Proliferation vs PDGF Emax (% max) [2, 7]: 101 ± 3.71 % max
- Proliferation vs PDGF pEC50 ([2]; EC80 concentration of PDGF): 7.45 ± 0.25
- Proliferation vs serum pEC50 ([2]; EC80 concentration of serum): 6.91 ± 0.48
- Proliferation vs serum Emax (% max) [2, 8]: 51.3 ± 8.89 % max
- maximal level of inhibition of FMT [3]: 71 % of the TGFβ response

Compound: OCc1cc(C(O)CNCCCCCCOCCCCc2ccccc2)ccc1O (stereo not shown) [Salmeterol]
- EC50 [1]: 0.123 nM
- Emax [1]: 45.8 ± 3.53%
- % cells positive for caspase-3/7, 1:10 dilution ([4]; human, 10 nM): 0.66 ± 0.24%
- % cells positive for caspase-3/7, Top conc ([4]; human, 100 nM): 0.40 ± 0.12%
- Emax [2, 9]: 89.2 ± 0.27%
- EC50 [2, 10]: 0.0316 nM
- EC50 ([2]; EC80 concentration of serum, read-out: Proliferation vs serum pEC50 (converted)): 0.263 nM
- Emax ([2]; EC80 serum, percentage of maximal proliferation observed with serum, read-out: Proliferation vs serum Emax (% max)): 37.7 ± 7.33%
- maximal level of inhibition of FMT [3]: 51 % of the TGFβ response

Compound: COc1ccc(C2CNC(=O)C2)cc1OC1CCCC1 (stereo not shown) [Rolipram]
- cAMP response (in words) [1]: no detectable cAMP accumulation
- inhibition of FBS- and PDGF-driven proliferation (in words) ([2]; BrdU): incapable of inhibiting the proliferation mediated by either stimulus
- inhibition of TGFβ-driven FMT (in words) [3]: full concentration-response curves could not be established
